Values quoted from earlier work in US20210251946A1, “CANNABINOID-[…], FORMULATIONS, AND USES THEREOF FOR TREATING AMYOTROPHIC LATERAL SCLEROSIS” (GREEN RUSH SCIENCE, LLC, priority 2020, published 2021).

How the values were obtained:
[1] = test system: ALS hSOD(G93A) mice; details: intraperitoneally, beginning after onset of motor impairment and tremor (at 90 days old)
[2] = test system: ALS hSOD(G93A) mice; details: daily intraperitoneal administration, initiated after disease onset

SMILES	disease progression [1]	increase of survival [2] [%]	motor impairment [2]
Cc1c(C(=O)c2cccc3ccccc23)c2cccc3c2n1[C@H](CN1CCOCC1)CO3 [WIN 55,212-2]	significant delay in disease progression		
CN1CCCCC1Cn1cc(C(=O)c2cc([N+](=O)[O-])ccc2I)c2ccccc21 (stereo not drawn) [AM-1241]		56	delayed motor impairment
